Legend:
Assay type in all cases: in vivo
[1] = tested on: purple nutsedge (Cyperus rotundus); experiment: Test E pre-/postemergence plant response; settings: scale 0 to 100
Outline: (§1)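 Plant response was judged by eye relative to controls, 0 meaning no effect and 100 complete control, after 14 to 21 days under greenhouse conditions. Compound was formulated in a non-phytotoxic solvent mixture with surfactant.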

[2] = tested on: itchgrass (Rottboellia cochinchinensis); experiment: Test E pre-/postemergence plant response; settings: scale 0 to 100
Outline: as §1

[3] = tested on: surinam grass (Brachiaria decumbens); experiment: Test E pre-/postemergence plant response; settings: scale 0 to 100
Outline: as §1

[4] = tested on: southern (S.) sandbur (Cenchrus echinatus); experiment: Test E pre-/postemergence plant response; settings: scale 0 to 100
Outline: as §1

[5] = tested on: bermudagrass (Cynodon dactylon); experiment: Test E pre-/postemergence plant response; settings: scale 0 to 100
Outline: as §1

[6] = tested on: johnsongrass (Sorghum halepense); experiment: Test E pre-/postemergence plant response; settings: scale 0 to 100
Outline: as §1

[7] = tested on: broadleaf signalgrass (Brachiaria platyphylla); experiment: Test E pre-/postemergence plant response; settings: scale 0 to 100
Outline: as §1

[8] = tested on: naked crabgrass (Digitaria nuda); experiment: Test E pre-/postemergence plant response; settings: scale 0 to 100
Outline: as §1

[9] = tested on: large crabgrass (Digitaria sanguinalis); experiment: Test E pre-/postemergence plant response; settings: scale 0 to 100
Outline: as §1

[10] = tested on: annual bluegrass (Poa annua); experiment: Test C pre-/postemergence plant response; settings: Preemergence, scale 0 to 100 (0 no effect, 100 complete control)
Outline: (§2)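 Formulated in a surfactant-containing non-phytotoxic solvent, compounds were tested under controlled growth conditions as preemergence and postemergence treatments. Ratings from 0 (no effect) to 100 (complete control) were assigned visually relative to controls 15 to 25 days later.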

wild oat (Avena fatua) = experiment: Test C pre-/postemergence plant response; settings: Preemergence
Outline: as §2

canola (Brassica rapa) = experiment: Test C pre-/postemergence plant response; settings: Preemergence
Outline: as §2

[11] = tested on: canarygrass (Phalaris minor); experiment: Test C pre-/postemergence plant response; settings: Preemergence
Outline: as §2

[12] = tested on: windgrass (Apera spica-venti); experiment: Test C pre-/postemergence plant response; settings: Preemergence
Outline: as §2

[13] = 8 g ai/ha, scale 0 to 100 (0 no effect, 100 complete control)
[14] = 16 g ai/ha, scale 0 to 100 (0 no effect, 100 complete control)
[15] = 31 g ai/ha, scale 0 to 100 (0 no effect, 100 complete control)
[16] = 62 g ai/ha, scale 0 to 100, 0 no effect, 100 complete control

## CCc1cc(-c2ccc(Cl)cc2)nn1-c1c(O)cnn(C)c1=O [Compound 21]
[1]; 16 g ai/ha, Preemergence
  Plant response rating, Nutsedge, Purple: 0
[1]; 31 g ai/ha, Preemergence
  Plant response rating, Nutsedge, Purple: 0
[1]; 62 g ai/ha, Preemergence
  Plant response rating, Nutsedge, Purple: 0
[1]; Postemergence, 8 g ai/ha
  Plant response rating, Nutsedge, Purple: 0
[1]; Postemergence, 16 g ai/ha
  Plant response rating, Nutsedge, Purple: 0
[1]; Postemergence, 31 g ai/ha
  Plant response rating, Nutsedge, Purple: 0
[1]; Postemergence, 62 g ai/ha
  Plant response rating, Nutsedge, Purple: 0
[2]; 16 g ai/ha, Preemergence
  Plant response rating, Itchgrass: 65
[2]; 31 g ai/ha, Preemergence
  Plant response rating, Itchgrass: 75
[2]; 62 g ai/ha, Preemergence
  Plant response rating, Itchgrass: 80
[2]; Postemergence, 8 g ai/ha
  Plant response rating, Itchgrass: 50
[2]; Postemergence, 16 g ai/ha
  Plant response rating, Itchgrass: 65
[2]; Postemergence, 31 g ai/ha
  Plant response rating, Itchgrass: 75
[2]; Postemergence, 62 g ai/ha
  Plant response rating, Itchgrass: 75
[3]; 16 g ai/ha, Preemergence
  Plant response rating, Surinam Grass: 100
[3]; 31 g ai/ha, Preemergence
  Plant response rating, Surinam Grass: 100
[3]; 62 g ai/ha, Preemergence
  Plant response rating, Surinam Grass: 100
[3]; Postemergence, 8 g ai/ha
  Plant response rating, Surinam Grass: 95
[3]; Postemergence, 16 g ai/ha
  Plant response rating, Surinam Grass: 95
[3]; Postemergence, 31 g ai/ha
  Plant response rating, Surinam Grass: 100
[3]; Postemergence, 62 g ai/ha
  Plant response rating, Surinam Grass: 100
[4]; 16 g ai/ha, Preemergence
  Plant response rating, Sandbur, S.: 98
[4]; 31 g ai/ha, Preemergence
  Plant response rating, Sandbur, S.: 100
[4]; 62 g ai/ha, Preemergence
  Plant response rating, Sandbur, S.: 100
[4]; Postemergence, 8 g ai/ha
  Plant response rating, Sandbur, S.: 80
[4]; Postemergence, 16 g ai/ha
  Plant response rating, Sandbur, S.: 80
[4]; Postemergence, 31 g ai/ha
  Plant response rating, Sandbur, S.: 95
[4]; Postemergence, 62 g ai/ha
  Plant response rating, Sandbur, S.: 100
[5]; 8 g ai/ha, Preemergence
  Plant response rating, Bermudagrass: 40
[5]; 16 g ai/ha, Preemergence
  Plant response rating, Bermudagrass: 90
[5]; 31 g ai/ha, Preemergence
  Plant response rating, Bermudagrass: 95
[5]; 62 g ai/ha, Preemergence
  Plant response rating, Bermudagrass: 100
[5]; Postemergence, 8 g ai/ha
  Plant response rating, Bermudagrass: 40
[5]; Postemergence, 16 g ai/ha
  Plant response rating, Bermudagrass: 50
[5]; Postemergence, 31 g ai/ha
  Plant response rating, Bermudagrass: 65
[5]; Postemergence, 62 g ai/ha
  Plant response rating, Bermudagrass: 75
[6]; 16 g ai/ha, Preemergence
  Plant response rating, Johnsongrass: 75
[6]; 31 g ai/ha, Preemergence
  Plant response rating, Johnsongrass: 90
[6]; 62 g ai/ha, Preemergence
  Plant response rating, Johnsongrass: 95
[6]; Postemergence, 8 g ai/ha
  Plant response rating, Johnsongrass: 50
[6]; Postemergence, 16 g ai/ha
  Plant response rating, Johnsongrass: 65
[6]; Postemergence, 31 g ai/ha
  Plant response rating, Johnsongrass: 85
[6]; Postemergence, 62 g ai/ha
  Plant response rating, Johnsongrass: 100
[7]; 16 g ai/ha, Preemergence
  Plant response rating, Signalgrass: 98
[7]; 31 g ai/ha, Preemergence
  Plant response rating, Signalgrass: 100
[7]; 62 g ai/ha, Preemergence
  Plant response rating, Signalgrass: 100
[7]; Postemergence, 8 g ai/ha
  Plant response rating, Signalgrass: 80
[7]; Postemergence, 16 g ai/ha
  Plant response rating, Signalgrass: 90
[7]; Postemergence, 31 g ai/ha
  Plant response rating, Signalgrass: 100
[7]; Postemergence, 62 g ai/ha
  Plant response rating, Signalgrass: 100
[8]; 16 g ai/ha, Preemergence
  Plant response rating, Crabgrass, Naked: 95
[8]; 31 g ai/ha, Preemergence
  Plant response rating, Crabgrass, Naked: 100
[8]; 62 g ai/ha, Preemergence
  Plant response rating, Crabgrass, Naked: 100
[8]; Postemergence, 8 g ai/ha
  Plant response rating, Crabgrass, Naked: 80
[8]; Postemergence, 16 g ai/ha
  Plant response rating, Crabgrass, Naked: 90
[8]; Postemergence, 31 g ai/ha
  Plant response rating, Crabgrass, Naked: 98
[8]; Postemergence, 62 g ai/ha
  Plant response rating, Crabgrass, Naked: 100
[9]; 8 g ai/ha, Preemergence
  Plant response rating, Crabgrass, Large: 65
[9]; 16 g ai/ha, Preemergence
  Plant response rating, Crabgrass, Large: 100
[9]; 31 g ai/ha, Preemergence
  Plant response rating, Crabgrass, Large: 100
[9]; 62 g ai/ha, Preemergence
  Plant response rating, Crabgrass, Large: 100
[9]; Postemergence, 8 g ai/ha
  Plant response rating, Crabgrass, Large: 80
[9]; Postemergence, 16 g ai/ha
  Plant response rating, Crabgrass, Large: 90
[9]; Postemergence, 31 g ai/ha
  Plant response rating, Crabgrass, Large: 95
[9]; Postemergence, 62 g ai/ha
  Plant response rating, Crabgrass, Large: 98
[10]; 8 g ai/ha
  Plant response rating, Bluegrass: 0
[10]; 16 g ai/ha
  Plant response rating, Bluegrass: 0
Wild oat (Avena fatua); [13]
  Plant response rating, Oat, Wild: 65
Wild oat (Avena fatua); [14]
  Plant response rating, Oat, Wild: 75
Wild oat (Avena fatua); [15]
  Plant response rating, Oat, Wild: 95
Wild oat (Avena fatua); [16]
  Plant response rating, Oat, Wild: 100
Canola (Brassica rapa); [13]
  Plant response rating, Canola: 0
Canola (Brassica rapa); [14]
  Plant response rating, Canola: 0
Canola (Brassica rapa); [15]
  Plant response rating, Canola: 0
Canola (Brassica rapa); [16]
  Plant response rating, Canola: 0
[11]; [13]
  Plant response rating, Canarygrass: 65
[11]; [14]
  Plant response rating, Canarygrass: 75
[11]; [15]
  Plant response rating, Canarygrass: 90
[11]; [16]
  Plant response rating, Canarygrass: 100
[12]; [13]
  Plant response rating, Windgrass: 100
[12]; [14]
  Plant response rating, Windgrass: 100
[12]; [15]
  Plant response rating, Windgrass: 100
[12]; [16]
  Plant response rating, Windgrass: 100
